We go through 12 compounds from paper PMC7566295, “Discovery of a Novel Natural Allosteric Inhibitor That Targets NDM-1 Against Escherichia coli” (Frontiers in Pharmacology, 2020).

Series [1] has as its target T1, NDM-1 (Klebsiella pneumoniae, UniProt C7C422).
T1 construct: made in house; host or cells: E. coli BL21
As to the kind of experiment: Enzyme inhibition assay (nitrocefin hydrolysis). It counts as biochemical. The method, then:
(§1) According to the methodology of Liu et al. the enzyme and nitrocefin were mixed and incubated at 37°C for 10 min. Consequently, absorbance was measured at 492 nm in a microplate reader. The specific calculation method was obtained from the literature ([Liu et al., 2018b]).

In series [2] the test system is bacteria carrying carbapenemases. Details: method as in Chiou et al., 2015. As to conditions: ref Chiou et al., 2015; cited from earlier work.
Series [3] concerns NDM-1. As to conditions: ref Chiou et al., 2015; read-out: IC50 for inhibiting NDM-1 in the hydrolysis of imipenem; cited from earlier work.
Series [4] deals with E. coli ZC-YN3 (producing NDM-1). As to the kind of experiment: MIC by broth microdilution / checkerboard. As to conditions: Escherichia coli. It is filed as cell-based. (In general: Broth dilution looks for growth in wells or tubes with falling amounts of substance.)
Series [5] relates to E. coli ZC-YN3. Nature of the series: Time-killing assay. It is filed as cell-based, Escherichia coli. The conditions noted are these: after 4 hours.
Details of series [6]: method as in Hecker et al., 2020. The conditions noted are these: rats; ref Hecker et al., 2020; cited from earlier work.
The next series relates to mice. As to conditions: acute toxicity study, ref Wang et al., 2012; cited from earlier work.
In series [7] the target is T2, T94A-NDM-1 (Klebsiella pneumoniae, UniProt C7C422, T94A). As to the kind of experiment: Enzyme reaction rate (steady-state kinetics, nitrocefin). It is filed as biochemical, E. coli. As to conditions: T94A treated with carnosic acid. The method, then: (§2) The principle of the measurement is mainly by using nitrocefin as an indicator, and its color changes from yellow to red with the increase of hydrolysis. NDM-1 (250 ng/ml) was incubated with various concentrations of carnosic acid in phosphate buffered saline, and then 50 μg/m L of nitrocefin was added to the mixture ([Teng et al., 2019]). The reaction rate was determined by continuously measuring the absorbance at OD492 nm at different times ([Krupyanko, 2009]).
T2 sequence (C7C422 29-270 T94A): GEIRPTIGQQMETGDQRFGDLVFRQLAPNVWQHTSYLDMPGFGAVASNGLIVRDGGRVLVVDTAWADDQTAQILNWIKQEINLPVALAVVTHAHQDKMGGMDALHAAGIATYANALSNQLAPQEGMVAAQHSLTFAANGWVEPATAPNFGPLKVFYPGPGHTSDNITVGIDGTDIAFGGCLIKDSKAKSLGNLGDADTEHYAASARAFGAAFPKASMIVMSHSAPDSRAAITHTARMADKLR

The target of series [8] is T3, F46A-NDM-1 (Klebsiella pneumoniae, UniProt C7C422, F46A). The series is described as above. It is filed as biochemical, E. coli. The conditions noted are these: F46A treated with carnosic acid. The method, then: as §2
T3 sequence (C7C422 29-270 F46A): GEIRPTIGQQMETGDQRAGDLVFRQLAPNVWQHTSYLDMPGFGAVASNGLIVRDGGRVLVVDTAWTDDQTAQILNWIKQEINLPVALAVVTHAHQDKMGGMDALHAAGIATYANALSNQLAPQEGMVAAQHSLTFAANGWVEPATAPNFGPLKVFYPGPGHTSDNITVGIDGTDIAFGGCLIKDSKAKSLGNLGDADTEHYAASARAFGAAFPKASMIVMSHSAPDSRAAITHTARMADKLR
Series [9] has as its target T4, WT-NDM-1 (Klebsiella pneumoniae, UniProt C7C422).
T4 construct: made in house; host or cells: E. coli BL21
Described as above. It counts as biochemical, E. coli. As to conditions: WT-NDM-1 treated with carnosic acid. The method, then:
as §2

The target in series [10] is T5, L65A-NDM-1 (Klebsiella pneumoniae, UniProt C7C422, L65A). Described as above. It counts as biochemical, E. coli. As to conditions: L65A treated with carnosic acid. The method, then:
as §2

Series [11] deals with F46A-NDM-1, L65A-NDM-1, T94A-NDM-1 mutants. As to the kind of experiment: Enzyme inhibition assay with NDM-1 mutants. It is filed as biochemical, E. coli. As to conditions: Figure 5E.
Excerpt: The coding sequence of the NDM-1 gene were amplified from genomic DNA of E. coli and digested with BamHI and XhoI. Subsequently, it was cloned into pET28a to generate plasmid pET28a-NDM-1. Plasmids encoding F46A-NDM-1, L65A-NDM-1, and T94A-NDM-1 were constructed using a QuikChange site-directed mutagenesis kit. The ligation product was transformed into competent E. coli DH5α cells. All constructed strains were verified by PCR and DNA sequencing ([Ali et al., 2018]). The NDM-1 primer came from the literature ([Teng et al., 2019]), and the other primers were designed in this experiment.
as §1

For series [12], the target named is T2, T94A-NDM-1. Nature of the series: Fluorescence-quenching assay. It counts as binding, E. coli. As to conditions: T94A-NDM-1, 300 K. The method, then:
(§3) The binding constant (KA) of the binding site of carnosic acid to wild type NDM-1 (WT-NDM-1), F46A-NDM-1, L65A-NDM-1, and T94A-NDM-1 was measured using a fluorescence quenching method. The binding energy was calculated according to the equation: r/Df = nK − rK. This method referred to the previous literature ([Wang J. F. et al., 2015]), using an excitation wavelength of 280 nm and an emission wavelength of 345 nm.

The target in series [13] is T3, F46A-NDM-1. Nature of the series: Fluorescence-quenching assay. It counts as binding, E. coli. As to conditions: F46A-NDM-1, 300 K. The method, then: as §3
In series [14] the target is T4, WT-NDM-1. Nature of the series: Fluorescence-quenching assay. It counts as binding, E. coli. As to conditions: WT-NDM-1, 300 K. The method, then:
as §3

The target in series [15] is T5, L65A-NDM-1. Nature of the series: Fluorescence-quenching assay. It counts as binding, E. coli. The conditions noted are these: L65A-NDM-1, 300 K. As to the method: as §3
In series [16] the test system is E. coli ZC-YN3. As to the kind of experiment: Growth curves. It counts as cell-based, Escherichia coli. The conditions noted are these: carnosic acid alone, Figure 2A.
[17] abbreviates: screening hits, Figure 1A, read-out: IC50 (converted).

Each structure is given as a SMILES string. Like-named read-outs stand apart in the source and are kept apart here. Some results are limits rather than exact numbers.

T1 sequence (C7C422 29-270, looked up): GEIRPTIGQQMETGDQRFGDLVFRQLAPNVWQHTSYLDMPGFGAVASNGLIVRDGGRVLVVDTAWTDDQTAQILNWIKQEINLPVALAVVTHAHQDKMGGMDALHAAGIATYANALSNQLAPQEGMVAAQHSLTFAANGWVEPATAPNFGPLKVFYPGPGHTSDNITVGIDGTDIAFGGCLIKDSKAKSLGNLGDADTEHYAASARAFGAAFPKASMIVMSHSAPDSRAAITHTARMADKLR
T5 sequence (C7C422 29-270 L65A): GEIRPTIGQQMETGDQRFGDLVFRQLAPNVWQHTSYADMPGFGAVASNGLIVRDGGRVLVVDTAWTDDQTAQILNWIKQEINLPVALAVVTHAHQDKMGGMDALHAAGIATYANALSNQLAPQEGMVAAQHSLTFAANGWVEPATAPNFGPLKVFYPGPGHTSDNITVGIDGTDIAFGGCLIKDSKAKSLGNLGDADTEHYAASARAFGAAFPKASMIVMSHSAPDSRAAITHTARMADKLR
T4 sequence (C7C422 29-270 limits assumed): as the sequence (C7C422 29-270, looked up) above

`O=C(/C=C/c1ccc(O)cc1)c1ccc(O)cc1O` [6'-Deoxychalcone]: on NDM-1 [1], the IC50 is 163 µM.

`COc1cc(O)cc2c1C(=O)C[C@@H](c1ccccc1)O2` [Alpinetin] gave an IC50 against NDM-1 [1] of 122 µM.

For the compound `C[N+](C)(C)CC(=O)O` [Betaine], the IC50 on NDM-1 [1] (setting [17]) is 355 µM.

Consider `O=C(O)/C=C/c1ccccc1` [Cinnamic Acid], for which the IC50 against NDM-1 [1] is 225 µM.

In the case of `C[C@H](CS)C(=O)N1CCC[C@@H]1C(=O)O` [D-captopril], the “effect on bacteria carrying carbapenemases” value in series [2] is on record as “no effect”. In addition, in the series with NDM-1 [3], the IC50 was […].

In the case of `C[C@H](CS)C(=O)N1CCC[C@H]1C(=O)O` [L-captopril], the “effect on bacteria carrying carbapenemases” value in series [2] is recorded as “no effect”. For the same compound, the IC50 in the series on NDM-1 [3] is […].

As to `CCCCC/C=C\C/C=C\CCCCCCCC(=O)O` [Linolate], at NDM-1 [1] (setting [17]), the IC50 was 218 µM.

For the compound `O=C1C[C@@H](c2ccc(O[C@@H]3O[C@H](CO)[C@@H](O)[C@H](O)[C@H]3O)cc2)Oc2cc(O)ccc21` [Liquiritin], the IC50 on NDM-1 [1] was 130 µM.

As to `C[C@@H](O)[C@H]1C(=O)N2C(C(=O)O)=C(S[C@@H]3CN[C@H](C(=O)N(C)C)C3)[C@H](C)[C@H]12` [Meropenem, meropenem, reference compound], the MIC in series [4] (meropenem alone, read-out: MIC of meropenem) came out at 16 µg/mL. Besides, in the series with E. coli ZC-YN3 [5], the “inhibitory effect on E. coli (time-kill)” value is “weakened”.

Regarding `O=C(O)c1c(F)ccc2c1OB(O)[C@@H]1C[C@H]21` [QPX7728], in series [6], the oral bioavailability entry was “good oral bioavailability”.

In the case of `O=c1c(-c2ccc(O[C@@H]3O[C@H](CO)[C@@H](O)[C@H](O)[C@H]3O)cc2)coc2cc(O)cc(O)c12` [Sophoricoside], at NDM-1 [1] (setting [17]), the IC50 was 152 µM.

Consider `CC(C)c1cc2c(c(O)c1O)[C@@]1(C(=O)O)CCCC(C)(C)[C@@H]1CC2` [carnosic acid], for which 27.1 µM corresponded to half-maximal inhibition at NDM-1 [1] (IC50). Further, on NDM-1 [1] (8 μg/ml carnosic acid), the “decrease of protein activity” value is given as 48.56%. Besides, at NDM-1 [1] (32 μg/ml carnosic acid), the “activity of the protein (remaining)” value is 19.85%. In addition, in series [4], the MIC was more than 32 µg/mL. The oral lethal dose result in the series with mice is “greater than 7000 mg/kg”. Also, the “hydrolysis reaction rate (slope of absorbance at 492 nm vs time)” value at T94A-NDM-1 [7] was found to be 0.02277; on F46A-NDM-1 [8], 0.0225; at WT-NDM-1 [9] it was 0.00742; at L65A-NDM-1 [10] it was 0.02164. Besides, the “effect on the activity of mutants” value in series [11] is “no obvious effect on the activity of mutants”. The “Binding constants K” value at T94A-NDM-1 [12] was determined as 0.3291 mL/µg; at F46A-NDM-1 [13] it was 0.1272 mL/µg; on WT-NDM-1 [14], 0.4564 mL/µg; on L65A-NDM-1 [15], 0.336 mL/µg. In addition, the effect on growth result with E. coli ZC-YN3 [16] was “nor inhibitory effect on the growth of E. coli ZC-YN3”.

The term IC50 denotes the concentration at which inhibition is half-maximal. For orientation: MIC means the lowest concentration that inhibits growth of the organism.
